Assay type in all cases: in vivo
Assay [1] deals with blackgrass (Alopecurus myosuroides). In words: Postemergence herbicidal activity, blackgrass. The settings on record: 15.6 ppm, foliar spray, visual after 2 weeks; 0 no injury, 100 complete kill. The method, boiled down:
(§1)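 Spray solutions in a carrier of acetone, water, isopropanol, DMSO, crop oil concentrate and Triton X-155 were applied to young plants (first–second true leaf); 1 ppm gave about 1 g/ha. Two weeks later, damage compared with untreated plants was rated from 0 to 100% kill.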

The subject of assay [2] is wild poinsettia (Euphorbia heterophylla). In words: Preemergence herbicidal activity, wild poinsettia. The settings on record: soil spray, visual after 3 weeks, 0 no injury, 100 complete kill or no germination. The method, boiled down:
(§2)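 Application was to bare soil of seeded pots at rates no higher than 4.48 kg/ha. Three weeks on, plant condition was compared visually with untreated pots and expressed as percent injury.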

Assay [3] deals with wild buckwheat (Polygonum convolvulus). Description: Postemergence herbicidal activity, wild buckwheat. Particulars: 15.6 ppm, foliar spray, visual after 2 weeks; 0 no injury, 100 complete kill. The method, boiled down:
as §1

Assay [4] has as its system giant foxtail (Setaria faberi). Description: Postemergence herbicidal activity, giant foxtail. The settings on record: 15.6 ppm, foliar spray, visual after 2 weeks; 0 no injury, 100 complete kill. The method, boiled down: as §1
The subject of assay [5] is lambsquarters (Chenopodium album). Description: Postemergence herbicidal activity, lambsquarters. The settings on record: 15.6 ppm, foliar spray, visual after 2 weeks; 0 no injury, 100 complete kill. In a few lines: as §1
Assay [6] relates to pigweed (Amaranthus retroflexus). In words: Preemergence herbicidal activity, pigweed. Particulars: soil spray, visual after 3 weeks, 0 no injury, 100 complete kill or no germination. The method, boiled down:
as §2

The subject of assay [7] is crabgrass (Digitaria sanguinalis). In words: Preemergence herbicidal activity, crabgrass. Particulars: soil spray, visual after 3 weeks, 0 no injury, 100 complete kill or no germination. The method, boiled down: as §2
Assay [8] relates to Rox orange sorghum (Sorghum bicolor). Description: Postemergence herbicidal activity, Rox orange sorghum. The settings on record: 15.6 ppm, foliar spray, visual after 2 weeks; 0 no injury, 100 complete kill. The method, boiled down: as §1
The subject of assay [9] is wild oats (Avena fatua). In words: Preemergence herbicidal activity, wild oats. Particulars: soil spray, visual after 3 weeks, 0 no injury, 100 complete kill or no germination. In a few lines: as §2
The subject of the next assay is viola (Viola tricolor). Description: Postemergence herbicidal activity, viola. The settings on record: 15.6 ppm, foliar spray, visual after 2 weeks; 0 no injury, 100 complete kill. The method, boiled down:
as §1

The subject of assay [10] is blackgrass (Alopecurus myosuroides). In words: Preemergence herbicidal activity, blackgrass. The settings on record: soil spray, visual after 3 weeks, 0 no injury, 100 complete kill or no germination. The method, boiled down:
as §2

The test system of assay [11] is lambsquarters (Chenopodium album). In words: Preemergence herbicidal activity, lambsquarters. Particulars: soil spray, visual after 3 weeks, 0 no injury, 100 complete kill or no germination. In a few lines:
as §2

Assay [12] concerns wild oats (Avena fatua). Description: Postemergence herbicidal activity, wild oats. The settings on record: 15.6 ppm, foliar spray, visual after 2 weeks; 0 no injury, 100 complete kill. In a few lines:
as §1

Assay [13] concerns Rox orange sorghum (Sorghum bicolor). In words: Preemergence herbicidal activity, Rox orange sorghum. Particulars: soil spray, visual after 3 weeks, 0 no injury, 100 complete kill or no germination. In a few lines:
as §2

Assay [14] relates to cocklebur (Xanthium strumarium). In words: Postemergence herbicidal activity, cocklebur. Particulars: 15.6 ppm, foliar spray, visual after 2 weeks; 0 no injury, 100 complete kill. The method, boiled down: as §1
The subject of assay [15] is giant foxtail (Setaria faberi). Description: Preemergence herbicidal activity, giant foxtail. The settings on record: soil spray, visual after 3 weeks, 0 no injury, 100 complete kill or no germination. In a few lines: as §2
For assay [16], the system named is morningglory (Ipomoea hederacea). Description: Preemergence herbicidal activity, morningglory. Particulars: soil spray, visual after 3 weeks, 0 no injury, 100 complete kill or no germination. In a few lines: as §2
Assay [17] has as its system chickweed (Stellaria media). Description: Postemergence herbicidal activity, chickweed. Particulars: 15.6 ppm, foliar spray, visual after 2 weeks; 0 no injury, 100 complete kill. In a few lines:
as §1

Assay [18] concerns velvetleaf (Abutilion theophrasti). In words: Preemergence herbicidal activity, velvetleaf. Particulars: soil spray, visual after 3 weeks, 0 no injury, 100 complete kill or no germination. In a few lines: as §2
In assay [19] the test system is pigweed (Amaranthus retroflexus). Description: Postemergence herbicidal activity, pigweed. Particulars: 15.6 ppm, foliar spray, visual after 2 weeks; 0 no injury, 100 complete kill. The method, boiled down:
as §1

In assay [20] the test system is cocklebur (Xanthium strumarium). In words: Preemergence herbicidal activity, cocklebur. Particulars: soil spray, visual after 3 weeks, 0 no injury, 100 complete kill or no germination. The method, boiled down: as §2
The subject of assay [21] is velvetleaf (Abutilion theophrasti). Description: Postemergence herbicidal activity, velvetleaf. The settings on record: 15.6 ppm, foliar spray, visual after 2 weeks; 0 no injury, 100 complete kill. In a few lines: as §1
Assay [22] deals with morningglory (Ipomoea hederacea). Description: Postemergence herbicidal activity, morningglory. Particulars: 15.6 ppm, foliar spray, visual after 2 weeks; 0 no injury, 100 complete kill. The method, boiled down:
as §1

Assay [23] deals with barnyardgrass (Echinochloa crus-galli). In words: Preemergence herbicidal activity, barnyardgrass. The settings on record: soil spray, visual after 3 weeks, 0 no injury, 100 complete kill or no germination. In a few lines:
as §2

The source of these data is US6645918B1, “N-([1,2,4]triazoloazinyl)thiophenesulfonamide compounds and their use as herbicides” (Dow AgroSciences LLC, priority 2000, dated 2003).

As for `COc1csc(C)c1S(=O)(=O)Nc1nc2c(OC)cnc(OC)n2n1` [Compound 23], the “ALOMY postemergence injury score 0-100” value in assay [1] stood at 70%. Besides, the “EPHHL preemergence injury score 0-100” value in assay [2] (4.4 g/Ha) turned out to be 90%. Moreover, the “POLCO postemergence injury score 0-100” value in assay [3] turned out to be 75%. The “SETFA postemergence injury score 0-100” value in assay [4] was found to be 90%. Moreover, the “CHEAL postemergence injury score 0-100” value in assay [5] was found to be 80%. Also, the “AMARE preemergence injury score 0-100” value in assay [6] (4.4 g/Ha) came to 100%. In addition, the “DIGSA preemergence injury score 0-100” value in assay [7] (4.4 g/Ha) is 100%. In assay [8], the “SORBI postemergence injury score 0-100” value is 90%. Moreover, the “AVEFA preemergence injury score 0-100” value in the assay with wild oats (Avena fatua) [9] (4.4 g/Ha) is on record as 90%. Moreover, in the assay with viola (Viola tricolor), the “VIOTR postemergence injury score 0-100” value is 70%. In addition, the “ALOMY preemergence injury score 0-100” value in assay [10] (4.4 g/Ha) came out at 98%. For the same compound, the “CHEAL preemergence injury score 0-100” value in assay [11] (4.4 g/Ha) came to 90%. In addition, in the assay on wild oats (Avena fatua) [12], the “AVEFA postemergence injury score 0-100” value stood at 70%. Besides, the “SORBI preemergence injury score 0-100” value in [13] (4.4 g/Ha) is recorded as 100%. In addition, in [14], the “XANST postemergence injury score 0-100” value is 90%. Further, the “SETFA preemergence injury score 0-100” value in [15] (4.4 g/Ha) was 98%. For the same compound, in assay [16] (4.4 g/Ha), the “IPOHE preemergence injury score 0-100” value is reported as 80%. In addition, the “STEME postemergence injury score 0-100” value in assay [17] came out at 80%. For the same compound, the “ABUTH preemergence injury score 0-100” value in [18] (4.4 g/Ha) came to 90%. Moreover, the “AMARE postemergence injury score 0-100” value in [19] is 90%. Further, the “XANST preemergence injury score 0-100” value in assay [20] (4.4 g/Ha) is reported as 70%. In addition, the “ABUTH postemergence injury score 0-100” value in assay [21] turned out to be 90%. Moreover, the “IPOHE postemergence injury score 0-100” value in assay [22] is recorded as 40%. Besides, in [23] (4.4 g/Ha), the “ECHCG preemergence injury score 0-100” value was 80%.

Regarding `COc1cscc1S(=O)(=O)Nc1nc2c(OC)ccc(OC)n2n1` [Compound 16], the “ALOMY postemergence injury score 0-100” value in assay [1] came out at 85%. Further, the “EPHHL preemergence injury score 0-100” value in [2] (35 g/Ha) stood at 0%. Besides, the “POLCO postemergence injury score 0-100” value in assay [3] worked out at 90%. In assay [4], the “SETFA postemergence injury score 0-100” value is given as 90%. In addition, the “CHEAL postemergence injury score 0-100” value in [5] was determined as 95%. In addition, the “AMARE preemergence injury score 0-100” value in assay [6] (35 g/Ha) is 60%. Moreover, the “DIGSA preemergence injury score 0-100” value in [7] (35 g/Ha) is on record as 30%. Further, in assay [8], the “SORBI postemergence injury score 0-100” value was 90%. Further, the “AVEFA preemergence injury score 0-100” value in the assay on wild oats (Avena fatua) [9] (35 g/Ha) is recorded as 0%. The “VIOTR postemergence injury score 0-100” value with viola (Viola tricolor) came to 70%. For the same compound, the “ALOMY preemergence injury score 0-100” value in [10] (35 g/Ha) was determined as 100%. Further, the “CHEAL preemergence injury score 0-100” value in assay [11] (35 g/Ha) was 80%. Moreover, the “AVEFA postemergence injury score 0-100” value with wild oats (Avena fatua) [12] was found to be 80%. Also, in assay [13] (35 g/Ha), the “SORBI preemergence injury score 0-100” value was 0%. In addition, the “XANST postemergence injury score 0-100” value in [14] came to 95%. The “SETFA preemergence injury score 0-100” value in [15] (35 g/Ha) is given as 0%. Moreover, the “IPOHE preemergence injury score 0-100” value in assay [16] (35 g/Ha) stood at 0%. Also, the “STEME postemergence injury score 0-100” value in assay [17] came out at 90%. Also, the “ABUTH preemergence injury score 0-100” value in [18] (35 g/Ha) is 40%. Moreover, the “AMARE postemergence injury score 0-100” value in assay [19] came to 95%. Moreover, the “XANST preemergence injury score 0-100” value in assay [20] (35 g/Ha) was 40%. The “ABUTH postemergence injury score 0-100” value in assay [21] was 80%. In addition, the “IPOHE postemergence injury score 0-100” value in [22] came to 60%. In assay [23] (35 g/Ha), the “ECHCG preemergence injury score 0-100” value turned out to be 0%.
